# Target: T1, CRF1 receptors (Homo sapiens, UniProt P34998)
# T1 construct: endogenous in cells; host or cells: IMR-32 cells, transformed with 2.5 µM 5'-bromo-2'-deoxyuridine for 10 days; membrane preparation
# T1 sequence (P34998 24-415): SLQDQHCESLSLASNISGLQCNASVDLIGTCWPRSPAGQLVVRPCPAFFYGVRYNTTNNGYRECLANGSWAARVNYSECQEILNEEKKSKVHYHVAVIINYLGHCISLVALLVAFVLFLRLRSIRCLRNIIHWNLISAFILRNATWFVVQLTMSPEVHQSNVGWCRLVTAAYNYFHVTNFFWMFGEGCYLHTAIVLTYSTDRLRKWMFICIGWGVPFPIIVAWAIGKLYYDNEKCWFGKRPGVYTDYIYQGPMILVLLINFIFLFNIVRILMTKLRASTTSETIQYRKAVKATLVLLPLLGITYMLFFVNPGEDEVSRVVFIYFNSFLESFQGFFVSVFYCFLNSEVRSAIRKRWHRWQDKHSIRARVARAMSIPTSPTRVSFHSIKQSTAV
# Test: CRF1 receptor radioligand binding assay ([125I]-oCRF competition, IMR-32 cell membranes)
# Conditions: not given
# Outline: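 Buffer: Tris pH 7.2 with MgCl2, BSA, Triton X-100, aprotinin, leupeptin; reaction stopped with ice-cold wash and filtered. Nonspecific binding set with 10 μM oCRF.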
row,Compound,Ki [nM]
1,"Cc1cc(C)c(-n2c3ccccc3n3c(CN(CC4CC4)CC(F)(F)C(F)(F)F)c(C(F)(F)F)nc23)c(C)c1 [Example 155, Cyclopropylmethyl-(2,2,3,3,3-pentafluoro-propyl)-[2-trifluoromethyl-8-(2,4,6-trimethyl-phenyl)-8H-1,3a,8-triaza-cyclopenta[α]inden-3-ylmethyl]-amine]",< 100

# Same assay, conditions: IMR-32 cell membranes, [125I]-oCRF 100 pM; read-out: Ki (CRF-1R)
row,Compound,Ki [nM]
1,"CCCN(Cc1ccccc1)Cc1c(C(F)(F)F)nc2n1CCCN2c1c(C)cc(C)cc1Cl [Example 130, Benzyl-[8-(2-chloro-4,6-dimethyl-phenyl)-2-trifluoromethyl-5,6,7,8-tetrahydro-imidazo[1,2-a]pyrimidin-3-ylmethyl]-propyl-amine]",< 1000
2,"C=CCN(CCC)Cc1c(C(F)(F)F)nc2n1CCCN2c1c(C)cc(C)cc1Cl [Example 131, Allyl-[8-(2-chloro-4,6-dimethyl-phenyl)-2-trifluoromethyl-5,6,7,8-tetrahydro-imidazo[1,2-a]pyrimidin-3-ylmethyl]-propyl-amine]",< 100
3,"CCCN(Cc1ccc(F)cc1)Cc1c(C(F)(F)F)nc2n1CCCN2c1c(C)cc(C)cc1Cl [Example 132, [8-(2-Chloro-4,6-dimethyl-phenyl)-2-trifluoromethyl-5,6,7,8-tetrahydro-imidazo[1,2-a]pyrimidin-3-ylmethyl]-(4-fluoro-benzyl)-propyl-amine]",< 1000
4,"Cc1cc(C)c(N2CCCn3c2nc(C(F)(F)F)c3CN(CCC(F)(F)F)Cc2cccc(F)c2)c(Cl)c1 [Example 133, [8-(2-Chloro-4,6-dimethyl-phenyl)-2-trifluoromethyl-5,6,7,8-tetrahydro-imidazo[1,2-a]pyrimidin-3-ylmethyl]-(3-fluoro-benzyl)-(3,3,3-trifluoro-propyl)-amine]",< 1000
5,"CCCN(Cc1cccc(F)c1)Cc1c(C(F)(F)F)nc2n1CCCN2c1c(C)cc(C)cc1Cl [Example 134, [8-(2-Chloro-4,6-dimethyl-phenyl)-2-trifluoromethyl-5,6,7,8-tetrahydro-imidazo[1,2-a]pyrimidin-3-ylmethyl]-(3-fluoro-benzyl)-propyl-amine]",< 1000
6,"Cc1cc(C)c(N2CCCn3c2nc(C(F)(F)F)c3CN(CC2CC2)CC(F)(F)F)c(Cl)c1 [Example 135, [8-(2-Chloro-4,6-dimethyl-phenyl)-2-trifluoromethyl-5,6,7,8-tetrahydro-imidazo[1,2-a]pyrimidin-3-ylmethyl]-cyclopropylmethyl-(2,2,2-trifluoroethyl)-amine]",< 100
7,"CCN(Cc1c(C(F)(F)F)nc2n1CCCN2c1c(C)cc(C)cc1Cl)CC1CCC1 [Example 137, [8-(2-Chloro-4,6-dimethyl-phenyl)-2-trifluoromethyl-5,6,7,8-tetrahydro-imidazo[1,2-a]pyrimidin-3-ylmethyl]-cyclobutylmethyl-ethyl-amine]",< 1000
8,"Cc1cc(C)c(N2CCCn3c2nc(C(F)(F)F)c3CN2CCCC2Cc2ccccc2)c(Cl)c1 (stereo not shown) [Example 138, 3-(2-Benzyl-pyrrolidin-1-ylmethyl)-8-(2-chloro-4,6-dimethyl-phenyl)-2-trifluoromethyl-5,6,7,8-tetrahydro-imidazo[1,2-a]pyrimidine]",< 100
9,"CCCN(CC1CC1)C(=O)c1c(C)nc2n(-c3c(C)cc(C)cc3C)c3ccc(F)cc3n12 [Example 139, 5-Fluoro-2-methyl-8-(2,4,6-trimethyl-phenyl)-8H-1,3a,8-triaza-cyclopenta[α]indene-3-carboxylic acid cyclopropylmethyl-propyl-amide]",< 10000
10,"CCCN(CC1CC1)C(=O)c1c(C)nc2n(-c3c(C)cc(C)cc3C)c3ccccc3n12 [Example 140, 2-Methyl-8-(2,4,6-trimethyl-phenyl)-8H-1,3a,8-triaza-cyclopenta[α]indene-3-carboxylic acid cyclopropylmethyl-propyl-amide]",< 1000
11,"CCCN(CC1CC1)C(=O)c1c(CC)nc2n(-c3c(C)cc(C)cc3C)c3ccccc3n12 [Example 141, 2-Ethyl-8-(2,4,6-trimethyl-phenyl)-8H-1,3a,8-triaza-cyclopenta[a]indene-3-carboxylic acid cyclopropylmethyl-propyl-amide]",< 1000
12,"CCCN(CC1CC1)C(=O)c1c(C(F)(F)F)nc2n(-c3c(C)cc(C)cc3C)c3ccccc3n12 [Example 142, 2-trifluoromethyl-8-(2,4,6-trimethylphenyl)-8H-1,3a,8-triaza-cyclopenta[a]indene-3-carboxylic acid cyclopropylmethyl-propyl-amide]",< 10000
13,"CCCN(CC1CC1)C(=O)c1c(C)nc2n(-c3ccc(Cl)cc3Cl)c3ccccc3n12 [Example 143, 8-(2,4-Dichloro-phenyl)-2-methyl-8H-1,3a,8-triaza-cyclopenta[a]indene-3-carboxylic acid cyclopropylmethyl-propyl-amide]",< 10000
14,"CCCN(CC1CC1)C(=O)c1c(CC)nc2n(-c3c(C)cc(C)cc3C)c3ccc(F)cc3n12 [Example 144, 2-Ethyl-5-fluoro-8-(2,4,6-trimethyl-phenyl)-8H-1,3a,8-triaza-cyclopenta[a]indene-3-carboxylic acid cyclopropylmethyl-propyl-amide]",< 100

# The next lines start with the values.
row,Ki [nM],Compound
1,< 100,"CCCN(Cc1c(C)nc2n(-c3c(C)cc(C)cc3C)c3ccc(F)cc3n12)CC1CC1 [Example 145, Cyclopropylmethyl-[5-fluoro-2-methyl-8-(2,4,6-trimethyl-phenyl)-8H-1,3a,8-triaza-cyclopenta[a]inden-3-ylmethyl]-propyl-amine]"
2,< 100,"CCCN(Cc1c(C)nc2n(-c3c(C)cc(C)cc3C)c3ccccc3n12)CC1CC1 [Example 146, Cyclopropylmethyl-[2-methyl-8-(2,4,6-trimethyl-phenyl)-8H-1,3a,8-triaza-cyclopenta[α]inden-3-ylmethyl]-propyl-amine]"
3,< 100,"CCCN(Cc1c(CC)nc2n(-c3c(C)cc(C)cc3C)c3ccccc3n12)CC1CC1 [Example 147, Cyclopropylmethyl-[2-ethyl-8-(2,4,6-trimethyl-phenyl)-8H-1,3a,8-triaza-cyclopenta[a]inden-3-ylmethyl]-propyl-amine]"
4,< 100,"CCCN(Cc1c(C(F)(F)F)nc2n(-c3c(C)cc(C)cc3C)c3ccccc3n12)CC1CC1 [Example 148, Cyclopropylmethyl-propyl-[2-trifluoromethyl-8-(2,4,6-trimethyl-phenyl)-8H-1,3a,8-triaza-cyclopenta[α]inden-3-ylmethyl]-amine]"
5,< 1000,"CCCN(Cc1c(CC)nc2n(-c3c(C)cc(C)cc3C)c3ccc(F)cc3n12)CC1CC1 [Example 149, Cyclopropylmethyl-[2-ethyl-5-fluoro-8-(2,4,6-trimethyl-phenyl)-8H-1,3a,8-triaza-cyclopenta[α]inden-3-ylmethyl]-propyl-amine]"
6,< 100,Cc1cc(C)c(-n2c3ccccc3n3c(CN(CC4CC4)CC(F)(F)F)c(C(F)(F)F)nc23)c(C)c1 [Example 150]
7,< 100,"Cc1cc(C)c(-n2c3ccccc3n3c(CN(CC4CC4)CC4CC4)c(C(F)(F)F)nc23)c(C)c1 [Example 151, Bis-cyclopropylmethyl-[2-trifluoromethyl-8-(2,4,6-trimethyl-phenyl)-8H-1,3a,8-triaza-cyclopenta[α]inden-3-ylmethyl]-amine]"
8,< 100,"Cc1cc(C)c(-n2c3ccccc3n3c(CN(CCC(F)(F)F)CC4CC4)c(C(F)(F)F)nc23)c(C)c1 [Example 152, Cyclopropylmethyl-[2-trifluoromethyl-8-(2,4,6-trimethyl-phenyl)-8H-1,3a,8-triaza-cyclopenta[α]inden-3-ylmethyl]-(3,3,3-trifluoro-propyl)-amine]"
9,< 100,"CCCN(Cc1c(C(F)(F)F)nc2n(-c3c(C)cc(C)cc3C)c3ccccc3n12)CC1CCC1 [Example 153, Cyclobutylmethyl-propyl-[2-trifluoromethyl-8-(2,4,6-trimethyl-phenyl)-8H-1,3a,8-triaza-cyclopenta[α]inden-3-ylmethyl]-amine]"
10,< 100,"CCN(Cc1c(C(F)(F)F)nc2n(-c3c(C)cc(C)cc3C)c3ccccc3n12)CC1CC1 [Example 154, Cyclopropylmethyl-ethyl-[2-trifluoromethyl-8-(2,4,6-trimethyl-phenyl)-8H-1,3a,8-triaza-cyclopenta[α]inden-3-ylmethyl]-amine]"
11,< 100,"Cc1cc(C)c(-n2c3ccccc3n3c(CN(CC4CCC4)CC(F)(F)F)c(C(F)(F)F)nc23)c(C)c1 [Example 156, Cyclobutylmethyl-(2,2,2-trifluoro-ethyl)-[2-trifluoromethyl-8-(2,4,6-trimethyl-phenyl)-8H-1,3a,8-triaza-cyclopenta[α]inden-3-ylmethyl]-amine]"
12,< 100,"CCCN(CCC(F)(F)F)Cc1c(C(F)(F)F)nc2n(-c3c(C)cc(C)cc3C)c3ccccc3n12 [Example 157, Propyl-[2-trifluoromethyl-8-(2,4,6-trimethyl-phenyl)-8H-1,3a,8-triaza-cyclopenta[α]inden-3-ylmethyl]-(3,3,3-trifluoro-propyl)-amine]"
13,< 100,"CCCN(Cc1c(C(F)(F)F)nc2n(-c3c(C)cc(C)cc3C)c3ccccc3n12)CC(F)(F)C(F)(F)F [Example 158, (2,2,3,3,3-Pentafluoro-propyl)-propyl-[2-trifluoromethyl-8-(2,4,6-trimethyl-phenyl)-8H-1,3a,8-triaza-cyclopenta[α]inden-3-ylmethyl]-amine]"

# Reference: patent publication US7125990B2, “Imidazolyl derivatives as corticotropin releasing factor inhibitors” (Bristol-Myers Squibb COmpany, priority 2001, dated 2006)
